What was measured:
Escherichia coli NIHJ = assay: Antibacterial MIC, standard serial dilution; assay type: cell-based; settings: nutrient agar, 37° C., 17 hours, as free base
[1] = tested on: Pseudomonas aeruginosa A3; assay: Antibacterial MIC, standard serial dilution; assay type: cell-based; settings: nutrient agar, 37° C., 17 hours, as free base
[2] = tested on: Escherichia coli K-12 ML1410; assay: Antibacterial MIC, standard serial dilution; assay type: cell-based; settings: nutrient agar, 37° C., 17 hours, as free base
[3] = tested on: Pseudomonas aeruginosa No. 12; assay: Antibacterial MIC, standard serial dilution; assay type: cell-based; settings: nutrient agar, 37° C., 17 hours, as free base
[4] = tested on: Shigella dysenteriae JS11910; assay: Antibacterial MIC, standard serial dilution; assay type: cell-based; settings: nutrient agar, 37° C., 17 hours, as free base
[5] = tested on: Klebsiella pneumoniae 22#3038; assay: Antibacterial MIC, standard serial dilution; assay type: cell-based; settings: nutrient agar, 37° C., 17 hours, as free base
[6] = tested on: Escherichia coli K-12 ML1630; assay: Antibacterial MIC, standard serial dilution; assay type: cell-based; settings: nutrient agar, 37° C., 17 hours, as free base
[7] = tested on: Escherichia coli K-12 ML1410 R81; assay: Antibacterial MIC, standard serial dilution; assay type: cell-based; settings: nutrient agar, 37° C., 17 hours, as free base
Proteus rettgeri GN311 = assay: Antibacterial MIC, standard serial dilution; assay type: cell-based; settings: nutrient agar, 37° C., 17 hours, as free base
Serratia sp. 4 = assay: Antibacterial MIC, standard serial dilution; assay type: cell-based; settings: nutrient agar, 37° C., 17 hours, as free base
[8] = tested on: Escherichia coli JR66/W677; assay: Antibacterial MIC, standard serial dilution; assay type: cell-based; settings: nutrient agar, 37° C., 17 hours, as free base
Escherichia coli JR225 = assay: Antibacterial MIC, standard serial dilution; assay type: cell-based; settings: nutrient agar, 37° C., 17 hours, as free base
[9] = tested on: Pseudomonas aeruginosa ROS 134/PU21; assay: Antibacterial MIC, standard serial dilution; assay type: cell-based; settings: nutrient agar, 37° C., 17 hours, as free base
[10] = tested on: Corynebacterium bovis 1810; assay: Antibacterial MIC, standard serial dilution; assay type: cell-based; settings: nutrient agar, 37° C., 17 hours, as free base
[11] = tested on: Escherichia coli K-12 C600 R135; assay: Antibacterial MIC, standard serial dilution; assay type: cell-based; settings: nutrient agar, 37° C., 17 hours, as free base
Salmonella typhi T-63 = assay: Antibacterial MIC, standard serial dilution; assay type: cell-based; settings: nutrient agar, 37° C., 17 hours, as free base
Providencia sp. Pv16 = assay: Antibacterial MIC, standard serial dilution; assay type: cell-based; settings: nutrient agar, 37° C., 17 hours, as free base
[12] = tested on: Escherichia coli K-12 LA290 R56; assay: Antibacterial MIC, standard serial dilution; assay type: cell-based; settings: nutrient agar, 37° C., 17 hours, as free base
Proteus vulgaris 0X19 = assay: Antibacterial MIC, standard serial dilution; assay type: cell-based; settings: nutrient agar, 37° C., 17 hours, as free base
[13] = tested on: Pseudomonas aeruginosa 21-75; assay: Antibacterial MIC, standard serial dilution; assay type: cell-based; settings: nutrient agar, 37° C., 17 hours, as free base
[14] = tested on: Pseudomonas aeruginosa TI-13; assay: Antibacterial MIC, standard serial dilution; assay type: cell-based; settings: nutrient agar, 37° C., 17 hours, as free base
[15] = tested on: Staphylococcus aureus Smith; assay: Antibacterial MIC, standard serial dilution; assay type: cell-based; settings: nutrient agar, 37° C., 17 hours, as free base
[16] = tested on: Bacillus cereus ATCC 10702; assay: Antibacterial MIC, standard serial dilution; assay type: cell-based; settings: nutrient agar, 37° C., 17 hours, as free base
Escherichia coli K-12 = assay: Antibacterial MIC, standard serial dilution; assay type: cell-based; settings: nutrient agar, 37° C., 17 hours, as free base
Serratia sp. SOU = assay: Antibacterial MIC, standard serial dilution; assay type: cell-based; settings: nutrient agar, 37° C., 17 hours, as free base
[17] = tested on: Escherichia coli K-12 LA290 R64; assay: Antibacterial MIC, standard serial dilution; assay type: cell-based; settings: nutrient agar, 37° C., 17 hours, as free base
[18] = tested on: Staphylococcus epidermidis 109; assay: Antibacterial MIC, standard serial dilution; assay type: cell-based; settings: nutrient agar, 37° C., 17 hours, as free base
[19] = tested on: Escherichia coli K-12 LA290 R55; assay: Antibacterial MIC, standard serial dilution; assay type: cell-based; settings: nutrient agar, 37° C., 17 hours, as free base
[20] = tested on: Pseudomonas aeruginosa 99; assay: Antibacterial MIC, standard serial dilution; assay type: cell-based; settings: nutrient agar, 37° C., 17 hours, as free base
Serratia marcescens = assay: Antibacterial MIC, standard serial dilution; assay type: cell-based; settings: nutrient agar, 37° C., 17 hours, as free base
[21] = tested on: Pseudomonas aeruginosa B-13; assay: Antibacterial MIC, standard serial dilution; assay type: cell-based; settings: nutrient agar, 37° C., 17 hours, as free base
[22] = tested on: Pseudomonas aeruginosa H9; assay: Antibacterial MIC, standard serial dilution; assay type: cell-based; settings: nutrient agar, 37° C., 17 hours, as free base
[23] = tested on: Klebsiella pneumoniae PCI602; assay: Antibacterial MIC, standard serial dilution; assay type: cell-based; settings: nutrient agar, 37° C., 17 hours, as free base
[24] = tested on: Pseudomonas aeruginosa GN315; assay: Antibacterial MIC, standard serial dilution; assay type: cell-based; settings: nutrient agar, 37° C., 17 hours, as free base
[25] = tested on: Escherichia coli K-12 ML1629; assay: Antibacterial MIC, standard serial dilution; assay type: cell-based; settings: nutrient agar, 37° C., 17 hours, as free base
[26] = tested on: Pseudomonas maltophilia GN 907; assay: Antibacterial MIC, standard serial dilution; assay type: cell-based; settings: nutrient agar, 37° C., 17 hours, as free base
[27] = tested on: Bacillus subtilis PCI 219; assay: Antibacterial MIC, standard serial dilution; assay type: cell-based; settings: nutrient agar, 37° C., 17 hours, as free base
[28] = tested on: Micrococcus flavus FDA 16; assay: Antibacterial MIC, standard serial dilution; assay type: cell-based; settings: nutrient agar, 37° C., 17 hours, as free base
Bacillus anthracis = assay type: cell-based; settings: nutrient agar, 37° C., 17 hours, as free base
Proteus rettgeri GN466 = assay: Antibacterial MIC, standard serial dilution; assay type: cell-based; settings: nutrient agar, 37° C., 17 hours, as free base
[29] = tested on: Mycobacterium smegmatis ATCC 607; assay: Antibacterial MIC, standard serial dilution; assay type: cell-based; settings: nutrient agar, 37° C., 17 hours, as free base
[30] = tested on: Escherichia coli K-12 J5R11-2; assay: Antibacterial MIC, standard serial dilution; assay type: cell-based; settings: nutrient agar, 37° C., 17 hours, as free base
[31] = tested on: Pseudomonas aeruginosa PST1; assay: Antibacterial MIC, standard serial dilution; assay type: cell-based; settings: nutrient agar, 37° C., 17 hours, as free base
[32] = tested on: Pseudomonas aeruginosa H11; assay: Antibacterial MIC, standard serial dilution; assay type: cell-based; settings: nutrient agar, 37° C., 17 hours, as free base
Sarcina lutea PCI 1001 = assay: Antibacterial MIC, standard serial dilution; assay type: cell-based; settings: nutrient agar, 37° C., 17 hours, as free base
[33] = tested on: Escherichia coli K-12 R388; assay: Antibacterial MIC, standard serial dilution; assay type: cell-based; settings: nutrient agar, 37° C., 17 hours, as free base
Providencia sp. 2991 = assay: Antibacterial MIC, standard serial dilution; assay type: cell-based; settings: nutrient agar, 37° C., 17 hours, as free base
Escherichia coli K-12 R5 = assay: Antibacterial MIC, standard serial dilution; assay type: cell-based; settings: nutrient agar, 37° C., 17 hours, as free base
mice = assay: Acute toxicity, intravenous administration in mice; assay type: in vivo
[34] = tested on: Staphylococcus aureus FDA 209P; assay: Antibacterial MIC, standard serial dilution; assay type: cell-based; settings: nutrient agar, 37° C., 17 hours, as free base
[35] = tested on: Salmonella enteritidis 1891; assay: Antibacterial MIC, standard serial dilution; assay type: cell-based; settings: nutrient agar, 37° C., 17 hours, as free base
[36] = tested on: Bacillus subtilis NRRL B-558; assay: Antibacterial MIC, standard serial dilution; assay type: cell-based; settings: nutrient agar, 37° C., 17 hours, as free base
[37] = tested on: Pseudomonas aeruginosa K-Ps 102; assay: Antibacterial MIC, standard serial dilution; assay type: cell-based; settings: nutrient agar, 37° C., 17 hours, as free base
Escherichia coli W677 = assay: Antibacterial MIC, standard serial dilution; assay type: cell-based; settings: nutrient agar, 37° C., 17 hours, as free base
[38] = tested on: Staphylococcus aureus Ap01; assay: Antibacterial MIC, standard serial dilution; assay type: cell-based; settings: nutrient agar, 37° C., 17 hours, as free base

## CNCC1CCC(N)C(OC2C(N)CCC(N(C)C(=O)CNC=N)C2O)O1.O.O.O.O.O=S(=O)(O)O.O=S(=O)(O)O (centres unmarked) [DBF, 3-demethoxy-2"-N-formimidoylistamycin B]
Escherichia coli NIHJ
  MIC: 0.20 µg/mL
[1]
  MIC: 0.39 µg/mL
[2]
  MIC: 1.56 µg/mL
[3]
  MIC: 25 µg/mL
[4]
  MIC: 1.56 µg/mL
[5]
  MIC: 1.56 µg/mL
[6]
  MIC: 1.56 µg/mL
[7]
  MIC: 0.39 µg/mL
Proteus rettgeri GN311
  MIC: 0.39 µg/mL
Serratia sp. 4
  MIC: 12.5 µg/mL
[8]
  MIC: 0.39 µg/mL
Escherichia coli JR225
  MIC: 0.39 µg/mL
[9]
  MIC: 100 µg/mL
[10]
  MIC: < 0.20 µg/mL
[11]
  MIC: 6.25 µg/mL
Salmonella typhi T-63
  MIC: 0.39 µg/mL
Providencia sp. Pv16
  MIC: 0.78 µg/mL
[12]
  MIC: 0.39 µg/mL
Proteus vulgaris 0X19
  MIC: < 0.20 µg/mL
[13]
  MIC: 50 µg/mL
[14]
  MIC: 12.5 µg/mL
[15]
  MIC: < 0.20 µg/mL
[16]
  MIC: 1.56 µg/mL
Escherichia coli K-12
  MIC: 0.39 µg/mL
Serratia sp. SOU
  MIC: 12.5 µg/mL
[17]
  MIC: 0.78 µg/mL
[18]
  MIC: 0.20 µg/mL
[19]
  MIC: 0.78 µg/mL
[20]
  MIC: > 100 µg/mL
Serratia marcescens
  MIC: 0.78 µg/mL
[21]
  MIC: > 100 µg/mL
[22]
  MIC: 25 µg/mL
[23]
  MIC: 0.78 µg/mL
[24]
  MIC: 50 µg/mL
[25]
  MIC: 0.39 µg/mL
[26]
  MIC: > 100 µg/mL
[27]
  MIC: 0.20 µg/mL
[28]
  MIC: 0.39 µg/mL
Bacillus anthracis
  MIC: 0.39 µg/mL
Proteus rettgeri GN466
  MIC: < 0.20 µg/mL
[29]
  MIC: 0.39 µg/mL
[30]
  MIC: 0.78 µg/mL
[31]
  MIC: 25 µg/mL
[32]
  MIC: 50 µg/mL
Sarcina lutea PCI 1001
  MIC: 0.39 µg/mL
[33]
  MIC: 0.39 µg/mL
Providencia sp. 2991
  MIC: 1.56 µg/mL
Escherichia coli K-12 R5
  MIC: 0.78 µg/mL
mice; mice, intravenous, in words
  acute toxicity: low toxicity
mice; mouse, in vivo, iv, 336 h
  tolerated dose (all treated mice): 100 mg/kg
[34]
  MIC: 0.39 µg/mL
[35]
  MIC: 1.56 µg/mL
[36]
  MIC: < 0.20 µg/mL
[37]
  MIC: 25 µg/mL
Escherichia coli W677
  MIC: 0.39 µg/mL
[38]
  MIC: 0.39 µg/mL
